Consider 3 compounds from US20070178544A1, “Anti fk778antibodies and high sensitive immunoassay methods” (priority 2004, published 2007).

This test in a line: Selection of an immunogen: titer of antibody in sera of immunized mice. It counts as in vivo. To be noted: immunogen conjugated with bovine thyroglobulin, with FCA, Balb/c mice; four (FR267471, FR266831) or seven (FR270531) immunizations. The protocol:
To obtain the selective antibody against FK778, two kinds of immunogens which were conjugated (FR267471 and FR266831) with bovine thyroglobulin (Sigma-Aldrich Corp.) mixed with Freund's complete adjuvant (FCA) (Difco) were immunized in hyperimmune Balb/c mice. After four times immunizations, the titer of antibody against the FR267471-BSA or the FR266831-BSA in sera was measured by enzyme-linked immunosorbent assay. […] To obtain immunogens having higher titer than the two immunogens, another type of immunogen FR270531 was synthesized. […] Accordingly, the present inventors have used FR270531 as an immunogen to produce antibodies directed to FK778, and FR267471 and FR266831 as positive and negative control to select the FK778 antibody specifically binding to the FK778 substance.
Consider `C#CCC/C(O)=C(\C#N)C(=O)Nc1ccc(OCCCCCC(=O)O)cc1` [FR267471, 6-(4-{[(2Z)-2-cyano-3-hydroxy-2-hepten-6-ynoyl]amino}phenoxy)hexanoic acid], for which the “titer of antibody in sera” value is on record as “not sufficient”. To `C#CCC/C(O)=C(\C#N)C(=O)Nc1ccc(OCCCCCC(=O)Oc2c(F)c(F)c(F)c(F)c2F)cc1` [FR270531, pentafluorophenyl 6-(4-{[(2Z)-2-cyano-3-hydroxy-2-hepten-6-ynoyl]amino}phenoxy)hexanoate] belongs “higher than those of FR267471 and FR266831”; to `N#C/C(C(=O)Nc1ccc(C(F)(F)F)cc1)=C(/O)CCCC(=O)O` [FR266831, (5Z)-6-cyano-5-hydroxy-7-oxo-7-{[4-(trifluoromethyl)phenyl]amino}-5-heptenoic acid], “not sufficient”.
